Data from PMC11381307 (Frontiers in Pharmacology, 2024).

What was measured:
[1] = biological target: T1, OATP1B1 (Homo sapiens, UniProt Q9Y6L6); test: Inhibitory effect of seven drugs on OATP1B1-mediated E217βG uptake; format: cell-based; conditions: 50 μM or 50 μg/mL; N = 2
T1 construct: host or cells: HEK293
T1 sequence (Q9Y6L6 1-691): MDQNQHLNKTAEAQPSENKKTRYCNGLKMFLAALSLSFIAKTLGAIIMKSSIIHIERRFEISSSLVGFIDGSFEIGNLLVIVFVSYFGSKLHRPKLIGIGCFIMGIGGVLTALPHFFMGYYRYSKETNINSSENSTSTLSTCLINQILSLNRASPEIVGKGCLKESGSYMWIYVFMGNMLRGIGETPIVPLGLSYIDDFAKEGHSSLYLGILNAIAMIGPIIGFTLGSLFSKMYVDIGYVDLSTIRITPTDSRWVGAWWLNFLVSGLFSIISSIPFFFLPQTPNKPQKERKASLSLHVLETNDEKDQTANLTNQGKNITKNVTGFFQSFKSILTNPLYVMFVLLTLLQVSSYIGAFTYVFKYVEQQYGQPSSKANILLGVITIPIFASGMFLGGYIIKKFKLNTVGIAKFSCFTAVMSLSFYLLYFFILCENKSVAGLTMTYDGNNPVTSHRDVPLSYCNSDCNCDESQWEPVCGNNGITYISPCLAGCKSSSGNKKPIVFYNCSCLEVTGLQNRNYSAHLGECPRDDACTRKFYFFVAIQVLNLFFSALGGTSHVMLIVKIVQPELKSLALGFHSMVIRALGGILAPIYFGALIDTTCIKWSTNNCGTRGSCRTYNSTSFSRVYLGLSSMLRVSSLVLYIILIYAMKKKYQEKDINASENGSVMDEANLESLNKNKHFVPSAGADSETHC
Protocol: (§1) Note: the peak area of probe substrate transported by MRP2, OAT3, OATP1B1 or OATP1B3 was determined by LC-MS method. Then, the relative uptake rate of probe substrate in the presence of seven drugs was calculated by using equation 7 or 11. When the relative uptake rate was decreased by more than 50%, indicating the potential inhibitory of drug on the transporter.

[2] = biological target: T2, OATP1B3 (Homo sapiens, UniProt Q9NPD5); test: Inhibitory effect of seven drugs on OATP1B3-mediated E217βG uptake; format: cell-based; conditions: 50 μM or 50 μg/mL; N = 2
T2 construct: host or cells: HEK293
T2 sequence (Q9NPD5 1-702): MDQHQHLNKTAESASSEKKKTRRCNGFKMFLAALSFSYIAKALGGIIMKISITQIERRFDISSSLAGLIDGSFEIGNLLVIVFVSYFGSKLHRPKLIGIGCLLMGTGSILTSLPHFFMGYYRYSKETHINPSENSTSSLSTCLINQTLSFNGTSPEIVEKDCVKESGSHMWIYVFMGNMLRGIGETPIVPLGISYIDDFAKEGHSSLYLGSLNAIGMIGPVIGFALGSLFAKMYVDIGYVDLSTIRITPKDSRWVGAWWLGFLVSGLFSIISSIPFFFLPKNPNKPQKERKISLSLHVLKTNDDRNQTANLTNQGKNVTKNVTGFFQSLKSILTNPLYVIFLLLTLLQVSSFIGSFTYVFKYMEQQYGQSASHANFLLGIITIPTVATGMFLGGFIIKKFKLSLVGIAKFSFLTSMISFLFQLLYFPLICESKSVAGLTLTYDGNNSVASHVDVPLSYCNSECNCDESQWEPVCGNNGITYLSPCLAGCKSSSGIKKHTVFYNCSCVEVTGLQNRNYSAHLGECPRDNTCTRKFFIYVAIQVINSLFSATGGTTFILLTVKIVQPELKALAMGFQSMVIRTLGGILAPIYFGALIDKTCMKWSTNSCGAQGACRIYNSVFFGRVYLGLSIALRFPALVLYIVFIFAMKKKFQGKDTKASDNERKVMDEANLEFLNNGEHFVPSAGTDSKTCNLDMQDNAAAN
Protocol: as §1

[3] = biological target: T3, OAT3 (Homo sapiens, UniProt Q8TCC7); test: Inhibitory effect of seven drugs on OAT3-mediated ES uptake; format: cell-based; set-up: host or cells: HEK293; conditions: 50 μM or 50 μg/mL; N = 2
T3 sequence (Q8TCC7 1-542): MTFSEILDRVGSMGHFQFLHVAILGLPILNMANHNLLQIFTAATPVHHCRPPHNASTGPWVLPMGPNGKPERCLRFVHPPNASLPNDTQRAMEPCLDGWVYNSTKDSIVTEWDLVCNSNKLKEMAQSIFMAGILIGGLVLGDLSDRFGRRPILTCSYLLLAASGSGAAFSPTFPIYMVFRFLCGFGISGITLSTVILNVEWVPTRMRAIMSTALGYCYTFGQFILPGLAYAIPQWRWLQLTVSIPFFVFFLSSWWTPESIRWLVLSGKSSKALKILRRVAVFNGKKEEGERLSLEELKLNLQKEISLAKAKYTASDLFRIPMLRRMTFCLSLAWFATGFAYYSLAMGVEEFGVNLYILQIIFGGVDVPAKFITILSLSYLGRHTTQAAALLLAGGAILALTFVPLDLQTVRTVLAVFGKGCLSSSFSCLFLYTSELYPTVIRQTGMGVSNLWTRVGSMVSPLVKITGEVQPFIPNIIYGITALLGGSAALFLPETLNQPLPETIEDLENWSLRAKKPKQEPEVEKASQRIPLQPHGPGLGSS
Protocol: as §1

[4] = biological target: MRP2 (Homo sapiens, UniProt Q92887); test: Inhibitory effect of seven drugs on MRP2-mediated E217βG uptake (vesicles); format: biochemical; set-up: purchased GenoMembrane (Tokyo, Japan) Product No. 0001; conditions: 50 μM or 50 μg/mL; N = 2
Sequence of MRP2 (Q92887 whole entry): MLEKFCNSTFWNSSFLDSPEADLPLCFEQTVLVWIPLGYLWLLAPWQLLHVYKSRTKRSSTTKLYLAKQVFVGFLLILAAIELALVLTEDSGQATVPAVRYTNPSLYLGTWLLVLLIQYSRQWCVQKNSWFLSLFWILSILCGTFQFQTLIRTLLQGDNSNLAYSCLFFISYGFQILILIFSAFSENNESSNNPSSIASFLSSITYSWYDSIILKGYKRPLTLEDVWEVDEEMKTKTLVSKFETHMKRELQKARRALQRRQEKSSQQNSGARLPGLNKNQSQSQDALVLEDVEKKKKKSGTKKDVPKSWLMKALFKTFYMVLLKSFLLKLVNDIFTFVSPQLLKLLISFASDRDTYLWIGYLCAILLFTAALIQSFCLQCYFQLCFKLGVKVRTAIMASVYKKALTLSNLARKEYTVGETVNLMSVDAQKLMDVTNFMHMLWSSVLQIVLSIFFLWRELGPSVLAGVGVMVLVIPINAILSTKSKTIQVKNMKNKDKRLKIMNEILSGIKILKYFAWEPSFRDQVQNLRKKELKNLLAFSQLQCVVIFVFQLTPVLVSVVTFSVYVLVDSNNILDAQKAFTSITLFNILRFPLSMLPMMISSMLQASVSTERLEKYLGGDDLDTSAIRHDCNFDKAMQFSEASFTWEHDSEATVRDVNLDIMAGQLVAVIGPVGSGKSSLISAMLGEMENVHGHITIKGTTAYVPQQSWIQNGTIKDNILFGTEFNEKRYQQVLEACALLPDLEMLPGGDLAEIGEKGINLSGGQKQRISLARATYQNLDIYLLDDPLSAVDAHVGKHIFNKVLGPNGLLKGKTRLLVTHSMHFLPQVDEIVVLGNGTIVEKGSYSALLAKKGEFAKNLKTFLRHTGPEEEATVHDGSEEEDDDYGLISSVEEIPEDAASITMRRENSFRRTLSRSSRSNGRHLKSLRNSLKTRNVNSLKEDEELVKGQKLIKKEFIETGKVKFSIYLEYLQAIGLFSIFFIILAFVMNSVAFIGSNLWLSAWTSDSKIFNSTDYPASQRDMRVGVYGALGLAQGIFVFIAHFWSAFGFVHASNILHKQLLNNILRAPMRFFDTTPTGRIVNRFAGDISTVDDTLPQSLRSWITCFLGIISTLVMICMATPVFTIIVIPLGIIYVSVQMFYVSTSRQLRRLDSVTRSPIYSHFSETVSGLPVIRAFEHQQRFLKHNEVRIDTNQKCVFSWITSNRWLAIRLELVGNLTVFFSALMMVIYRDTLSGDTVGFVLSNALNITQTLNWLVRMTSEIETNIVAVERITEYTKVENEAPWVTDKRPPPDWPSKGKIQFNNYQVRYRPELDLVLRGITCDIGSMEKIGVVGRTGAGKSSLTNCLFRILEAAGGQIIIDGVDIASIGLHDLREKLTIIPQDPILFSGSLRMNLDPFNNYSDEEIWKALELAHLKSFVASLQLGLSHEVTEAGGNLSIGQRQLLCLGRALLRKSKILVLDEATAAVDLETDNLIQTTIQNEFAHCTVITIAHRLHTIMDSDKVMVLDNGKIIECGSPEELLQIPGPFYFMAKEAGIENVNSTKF
Protocol: Briefly, 10 μL of vesicle membranes and 5 μL of Reagent G were mixed and pre-incubated with 10 μL of the compounds or Buffer A2 (used as no compound-treatment control [NC]) at 37°C for 5 min. […] The two mixtures were mixed before the incubation and then incubated for an additional 5 min. […]
Regarding the inhibition assay, the methods used to calculate the transported activity and UR were similar to those used for the substrate assay. However, please refer to the SLC inhibition assay for the equations for calculating the UR percentages relative to the NC and IC50 values of compounds on MRP2 activity and MRP2-mediated MPAG transport.
as §1

[5] = biological target: T3, OAT3; test: Transporter substrate study using HEK293-OAT3 cells; conditions: for uptake ratio (UR) mediated by OAT3: 10 μM
[6] = cited from earlier work
[7] = biological target: T4, human OAT1 (Homo sapiens, UniProt Q4U2R8)
T4 sequence (Q4U2R8 1-563): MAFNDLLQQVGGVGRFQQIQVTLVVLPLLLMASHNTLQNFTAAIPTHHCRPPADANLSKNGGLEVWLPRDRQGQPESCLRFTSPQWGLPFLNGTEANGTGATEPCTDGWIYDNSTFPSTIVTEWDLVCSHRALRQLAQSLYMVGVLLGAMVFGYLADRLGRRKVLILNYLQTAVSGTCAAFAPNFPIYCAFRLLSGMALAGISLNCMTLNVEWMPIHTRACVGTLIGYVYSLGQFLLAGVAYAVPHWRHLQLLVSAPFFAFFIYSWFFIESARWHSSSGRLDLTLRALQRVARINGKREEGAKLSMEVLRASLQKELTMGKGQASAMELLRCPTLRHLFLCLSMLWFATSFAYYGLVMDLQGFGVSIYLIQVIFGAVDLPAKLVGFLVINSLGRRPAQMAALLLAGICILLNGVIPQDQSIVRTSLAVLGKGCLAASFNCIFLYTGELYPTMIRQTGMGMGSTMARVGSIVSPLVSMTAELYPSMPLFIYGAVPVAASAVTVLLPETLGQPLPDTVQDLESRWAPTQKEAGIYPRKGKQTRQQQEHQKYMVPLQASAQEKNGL

[8] = test system: UGT; test: Human hepatocyte UGT induction study, conversion of MPA to MPAG; format: cell-based; conditions: for formation of MPAG, % of NC (Mean): 96 h treatment
Protocol: Cryopreserved human hepatocytes were recovered in a pre-warmed incubation medium, diluted to a viable cell density (∼0.7 × 10^6 cells/mL) using a plating medium, followed by the addition of 100 μL hepatocytes into each well of a collagen I-coated 96-well plate. The cell monolayer was formed after an overnight incubation period at 37°C under 5%CO2. The plating medium was then replaced with an incubation medium for further culture. On the second day, an incubation medium containing different concentrations of either compound, the inducer omeprazole (final concentration of 50 μM), or vehicle (0.1% [v/v] dimethyl sulfoxide [DMSO]). […] At the end of the incubation period, the medium was replaced with a substrate for UGT and MPA. Following a further incubation of 15 or 30 min at 37°C under 5% CO2, 100 μL of the reaction medium was transferred to 400 μL of ice-cold methanol containing internal standard (IS) to terminate the reaction. Finally, the supernatant was collected after centrifugation at 4,000 rpm for 10 min and analyzed for glucuronide formation using liquid chromatography-mass spectrometry (LC-MS).
The formation of glucuronide metabolites, as determined with LC-MS, was used to calculate the formation rate linked to enzyme activity according to Equation 1. Formation rate pmol/10^6 cells/min=amount of glucuronide metabolites formation pmol/number of cells 10^6 cells×incubation time min (1)
The percentage of enzyme activity relative to the NC (%) was determined using Equation 2. Relative enzyme activity % of NC=formation rate in the compound−treated group/that in NC×100 (2)

[9] = criterion UR ≥2.0 and inhibition ≥50%

Structure (SMILES): CCCCC[C@H](O)/C=C/[C@H]1[C@H](O)CC(=O)[C@@H]1CCCCCCC(=O)O [Alprostadil, alprostadil]
- Relative net uptake rate (% of NC), Mean, OATP1B1-mediated E217βG uptake [1]: 33.6 % of NC
- Relative net uptake rate (% of NC), Mean, OATP1B3-mediated E217βG uptake [2]: 59.6 % of NC
- Relative net uptake rate (% of NC), Mean, OAT3-mediated ES uptake [3]: 52.6 % of NC
- Relative net uptake rate (% of NC), Mean, MRP2-mediated E217βG uptake [4]: 137 % of NC

Structure (SMILES): CCN1CCN(C(=O)N[C@@H](C(=O)N[C@@H]2C(=O)N3C(C(=O)O)=C(CSc4nnnn4C)CS[C@H]23)c2ccc(O)cc2)C(=O)C1=O [Cefoperzone, cefoperazone]
- Relative net uptake rate (% of NC), Mean, OATP1B1-mediated E217βG uptake [1]: 168 % of NC
- Relative net uptake rate (% of NC), Mean, OATP1B3-mediated E217βG uptake [2]: 67.5 % of NC
- Relative net uptake rate (% of NC), Mean, MRP2-mediated E217βG uptake [4]: 104 % of NC

Structure (SMILES): C[C@]12CC[C@@H]3c4ccc(OS(=O)(=O)O)cc4CC[C@H]3[C@@H]1CCC2=O [ES, estrone-3-sulfate]
- uptake ratio (UR) of probe substrate mediated by OAT3 ([5]; after probenecid treatment): 3.26
- uptake ratio (UR) of probe substrate mediated by OAT3 ([5]; without inhibitor): 7.37

Structure (SMILES): COc1c(C)c2c(c(O)c1C/C=C(\C)CCC(=O)OCCN1CCOCC1)C(=O)OC2 [MMF, mycophenolate mofetil]
- fraction of the absorbed drug eliminated in the urine ([6]; ref van Schaik et al., 2009): approximately 87%

Structure (SMILES): COc1c(C)c2c(c(O)c1C/C=C(\C)CCC(=O)O)C(=O)OC2 [MPA, mycophenolic acid]
- exposure lower in the early phase after transplantation than in the stable period ([6]; similar dose of MMF, ref Shaw et al., 2003): 30%–50%

Structure (SMILES): COc1c(C)c2c(c(O[C@@H]3O[C@H](C(=O)O)[C@@H](O)[C@H](O)[C@H]3O)c1C/C=C(\C)CCC(=O)O)C(=O)OC2 [MPAG, 7-O-mycophenolic acid glucuronide]
- uptake ratio (UR) mediated by OAT1 ([7]; 0.5, 1, and 10 μM): less than 2.0
- substrate of OAT1 (in words) [7, 9]: not a substrate of OAT1
- uptake ratio (UR) mediated by OAT3 ([5]; following incubation with probenecid): 1.19
- uptake ratio (UR) mediated by OAT3 ([5]; without inhibitor): 2.47
- substrate of OAT3 (in words) [5, 9]: weak substrate for OAT3

Structure (SMILES): C[C@@H](O)[C@H]1C(=O)N2C(C(=O)O)=C(S[C@@H]3CN[C@H](C(=O)N(C)C)C3)[C@H](C)[C@H]12 [Meropenem, meropenem]
- Relative net uptake rate (% of NC), Mean, OATP1B1-mediated E217βG uptake [1]: 95.9 % of NC
- Relative net uptake rate (% of NC), Mean, OATP1B3-mediated E217βG uptake [2]: 69.9 % of NC
- Relative net uptake rate (% of NC), Mean, OAT3-mediated ES uptake [3]: 26.6 % of NC
- Relative net uptake rate (% of NC), Mean, MRP2-mediated E217βG uptake [4]: 137 % of NC

Structure (SMILES): O=C(c1cc(Cc2n[nH]c(=O)c3ccccc23)ccc1F)N1CCN(C(=O)C2CC2)CC1 [Olaparib, olaparib]
- Relative net uptake rate (% of NC), Mean, OATP1B1-mediated E217βG uptake [1]: 99.3 % of NC
- Relative net uptake rate (% of NC), Mean, OATP1B3-mediated E217βG uptake [2]: 72.4 % of NC
- Relative net uptake rate (% of NC), Mean, OAT3-mediated ES uptake [3]: 70.2 % of NC
- Relative net uptake rate (% of NC), Mean, MRP2-mediated E217βG uptake [4]: 136 % of NC

Structure (SMILES): COc1ccnc(C[S+]([O-])c2nc3ccc(OC(F)F)cc3[nH]2)c1OC (stereo not shown) [Pantoprazole, pantoprazole]
- Relative net uptake rate (% of NC), Mean, OATP1B1-mediated E217βG uptake [1]: 115 % of NC
- Relative net uptake rate (% of NC), Mean, OATP1B3-mediated E217βG uptake [2]: 67.7 % of NC
- Relative net uptake rate (% of NC), Mean, OAT3-mediated ES uptake [3]: 87.2 % of NC
- Relative net uptake rate (% of NC), Mean, MRP2-mediated E217βG uptake [4]: 134 % of NC

Structure (SMILES): C[C@]12C=CC(=O)C=C1CC[C@@H]1[C@@H]2[C@@H](O)C[C@@]2(C)[C@H]1CC[C@]2(O)C(=O)CO [prednisolone]
- formation of MPAG, % of NC (Mean) ([8]; 0.5 μM): 101 % of NC
- formation of MPAG, % of NC (Mean) ([8]; 1 μM): 114 % of NC
- formation of MPAG, % of NC (Mean) ([8]; 5 μM): 106 % of NC
- formation of MPAG, % of NC (Mean) ([8]; 10 μM): 101 % of NC
- formation of MPAG, % of NC (Mean) ([8]; 50 μM): 126 % of NC
- formation of MPAG, % of NC (Mean) ([8]; 100 μM): 129 % of NC
- change in MPAG formation from MPA (in words) ([8]; 96 h incubation of human hepatocytes): slight increase

Structure (SMILES): CCCN(CCC)S(=O)(=O)c1ccc(C(=O)O)cc1 [probenecid]
- reduction of OAT3-mediated MPAG uptake ([5]; 10 μM MPAG): 90.8%
- reduction of OAT3-mediated ES uptake ([5]; probe substrate ES): 69.4%
